Assay results: patent US8420644B2, “Pharmaceutical composition intended for the prevention or for the treatment of cerebral oedemas” (Biocodex, priority 2005, dated 2013)
Read-outs that look alike come from different tables or passages of the source.

Assays:
[1] = test system: cerebral edema induced triethyltin (TET) chloride; details: administered during the intoxication, measured after 5 days (Linee et al., 1984); cited from earlier work
[2] = format: in vivo, rat
[3] = test system: cerebral oedema induced by triethyltin (TET); details: rat, in vivo
[4] = test system: ambulatory activity disrupted by triethyltin (TET); details: for Ambulatory activities: no TET
[5] = moclobemide 2×100 mg/kg/day + TET
[6] = moclobemide 2 × 100 mg/kg/day + TET 3 mg/kg/day, day 4
[7] = moclobemide 2 × 50 mg/kg/day + TET 3 mg/kg/day, day 4
[8] = moclobemide 2 × 50 mg/kg/day + TET 3 mg/kg/day, day −3, before any treatment
[9] = moclobemide 2 × 50 mg/kg/day, TET 0, day 4
[10] = moclobemide 2 × 50 mg/kg/day, TET 0, day −3, before any treatment
[11] = moclobemide 2 × 100 mg/kg/day + TET 3 mg/kg/day, day −3, before any treatment

CC[C@]12CCCN3CCc4c(n(c5ccccc45)[C@@](O)(C(=O)OC)C1)[C@@H]32 [vincamine]
Activity in the preventive protocol of intoxication with tin [1]: active

(−)eburnamonine
Activity in the preventive protocol of intoxication with tin [1]: active

dihydroergotoxin
Activity in the preventive protocol of intoxication with tin [1]: active

moclobemide
Body weight (grammes ± esm) ([2]; moclobemide 2 × 50 mg/kg/day + TET 3 mg/kg/day, day 0): 245 ± 3 grammes | Body weight (grammes ± esm) ([2]; moclobemide 2 × 50 mg/kg/day + TET 3 mg/kg/day, day 1): 246 ± 3 grammes | Body weight (grammes ± esm) ([2]; moclobemide 2 × 50 mg/kg/day + TET 3 mg/kg/day, day 2): 249 ± 3 grammes | Body weight (grammes ± esm) ([2]; moclobemide 2 × 50 mg/kg/day + TET 3 mg/kg/day, day 3): 253 ± 4 grammes | Body weight (grammes ± esm) ([2]; moclobemide 2 × 50 mg/kg/day + TET 3 mg/kg/day, day −3): 216 ± 3 grammes | Drop in weight between day 3 and day 4 induced by the TET [2, 5]: prevents the drop in weight induced by the TET | Body weight (grammes ± esm) ([2]; moclobemide 2 × 100 mg/kg/day + TET 3 mg/kg/day, day 0): 243 ± 4 grammes | Body weight (grammes ± esm) ([2]; moclobemide 2 × 100 mg/kg/day + TET 3 mg/kg/day, day 2): 244 ± 4 grammes | Body weight (grammes ± esm) ([2]; moclobemide 2 × 100 mg/kg/day + TET 3 mg/kg/day, day 3): 244 ± 4 grammes | Body weight (grammes ± esm) [2, 6]: 241 ± 5 grammes | Body weight (grammes ± esm) ([2]; moclobemide 2 × 100 mg/kg/day + TET 3 mg/kg/day, day −3): 203 ± 5 grammes | Variation in percentage ([3]; 50 mg/kg/day): −0.01% | Variation in percentage ([3]; 100 mg/kg/day): −0.14% | Effect of TET on the ambulatory activities ([4]; moclobemide 2×50 mg/kg/day + TET): does not suppress the effect of TET | Horizontal ambulatory activity (means ± esm) [4, 7]: 474 ± 70 arbitrary unit | Total ambulatory activity (means ± esm) [4, 7]: 844 ± 88 arbitrary unit | Horizontal ambulatory activity (means ± esm) [4, 8]: 2319 ± 248 arbitrary unit | Total ambulatory activity (means ± esm) [4, 8]: 3001 ± 314 arbitrary unit | Vertical ambulatory activity (means ± esm) [4, 8]: 279 ± 37 arbitrary unit | Ambulatory activities ([4]; moclobemide 2×50 mg/kg/day for 5 days): does not lead to any significant effect on the ambulatory activities | Horizontal ambulatory activity (means ± esm) [4, 9]: 1483 ± 163 arbitrary unit | Total ambulatory activity (means ± esm) [4, 9]: 2000 ± 224 arbitrary unit | Horizontal ambulatory activity (means ± esm) [4, 10]: 2754 ± 415 arbitrary unit | Total ambulatory activity (means ± esm) [4, 10]: 3840 ± 323 arbitrary unit | Effect of TET on the ambulatory activities [4, 5]: does not suppress the effect of TET | Horizontal ambulatory activity (means ± esm) [4, 6]: 497 ± 139 arbitrary unit | Horizontal ambulatory activity (means ± esm) [4, 11]: 2549 ± 221 arbitrary unit | Total ambulatory activity (means ± esm) [4, 11]: 3332 ± 235 arbitrary unit | Vertical ambulatory activity (means ± esm) [4, 11]: 279 ± 27 arbitrary unit | Ambulatory activities ([4]; moclobemide 2×100 mg/kg/day, day 4): significantly decreases the ambulatory activities at day 4
